For one cell line, relative viability results are on record in the supplement of paper PMC10307832.

What all share (test): relative viability (nuclei count vs DMSO), 5 days (fraction); higher = more cells survive
Compound in the test “IDH-C35 + Crizotinib”: Cc1ccccc1C(C(=O)NC1CCCCC1)N(C(=O)Cn1ccnc1C)c1cccc(F)c1 [IDH-C35] + C[C@@H](Oc1cc(-c2cnn(C3CCNCC3)c2)cnc1N)c1c(Cl)ccc(F)c1Cl [Crizotinib] (partner 1 µM)
The essentials: (§1)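 Relative viability equals treated-well nuclei counts divided by vehicle-well nuclei counts. Counts came from 4× images of lung cancer cell lines grown in 1536-well plates for 5 days after pin-tool dosing on the day after seeding. Dosing used one drug alone or a fixed anchor-drug dose plus five library-drug doses (not always all listed) in √10 steps, and values are medians of duplicate plates.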

Compound in the test “IDH-C35 + Alpelisib”: Cc1ccccc1C(C(=O)NC1CCCCC1)N(C(=O)Cn1ccnc1C)c1cccc(F)c1 [IDH-C35] + Cc1nc(NC(=O)N2CCC[C@H]2C(N)=O)sc1-c1ccnc(C(C)(C)C(F)(F)F)c1 [Alpelisib] (partner 2 µM)
The method in brief:
as §1

Compound in test [1]: CC1=C(C(=NN1)C)CC2=C(C3=C(S2)N(C(=O)N(C3=O)C)CC(C)C)C(=O)N4C[C@@H](CO4)O + Nc1ncn([C@H]2C[C@H](O)[C@@H](CO)O2)c(=O)n1 [Decitabine] (partner 2 µM)
The method in brief:
as §1

Compound in test [2]: CC1=C(C(=NN1)C)CC2=C(C3=C(S2)N(C(=O)N(C3=O)C)CC(C)C)C(=O)N4C[C@@H](CO4)O + CC(=O)Nc1cccc(-n2c(=O)n(C3CC3)c(=O)c3c(Nc4ccc(I)cc4F)n(C)c(=O)c(C)c32)c1 [Trametinib] (partner 0.02 µM)
The method in brief:
as §1

As to UMC-11, the relative viability with IDH-C35 + Crizotinib (first compound 0.08 µM) is 0.578; in the test with IDH-C35 + Crizotinib (first compound 0.253 µM) it was 0.56; with IDH-C35 + Crizotinib (first compound 0.8 µM), 0.481; with IDH-C35 + Crizotinib (first compound 2.53 µM), 0.576; with IDH-C35 + Crizotinib (first compound 8 µM) it was 0.629; with IDH-C35 + Alpelisib (first compound 0.08 µM), 0.998. Besides, the relative viability was determined as 0.973 with IDH-C35 + Alpelisib (first compound 0.253 µM); 0.928 in the test with IDH-C35 + Alpelisib (first compound 0.8 µM); 0.946 with IDH-C35 + Alpelisib (first compound 2.53 µM); 0.988 in the test with IDH-C35 + Alpelisib (first compound 8 µM); 0.54 in test [1] (first compound 0.0025 µM); 0.506 in test [1] (first compound 0.007906 µM). For the same cell line, the relative viability in test [1] (first compound 0.025 µM) was 0.38; in test [1] (first compound 0.07906 µM), 0.483; in test [1] (first compound 0.25 µM), 0.491; in test [2] (first compound 0.0025 µM), 0.842; in test [2] (first compound 0.007906 µM), 0.84; in test [2] (first compound 0.025 µM) it was 0.83. In addition, the results for the relative viability in test [2] (first compound 0.07906 µM) and in test [2] (first compound 0.25 µM) were 0.677 and 0.993, respectively.
